In ChEMBL document CHEMBL6078677, “Discovery and optimization of tetrahydroacridine derivatives as a novel class of antibiotics against multidrug-resistant Gram-positive pathogens by targeting type I signal peptidase and disrupting bacterial membrane” (Eur J Med Chem, 2025):
Values after ≈ are worked out from the molar mass of the structure shown. Active and inactive are the calls of the source. The rule behind the calls is not given here.

Key:
[1] = Hemolytic activity in Kunming mouse erythrocytes assessed as hemolysis at 4 times of MIC measured after 1 hrs by absorbance based assay relative to control; assay type: toxicity, cell-based, Erythrocyte; conditions: read-out: Activity
Streptococcus agalactiae = experiment: Antimicrobial activity against Streptococcus agalactiae DL03 harboring erythromycin-resistance rRNA methylase B assessed as inhibition of visible growth of bacteria incubated for 20 hrs by broth microdilution method; assay type: functional
Staphylococcus aureus [2] = experiment: Bactericidal activity against Staphylococcus aureus ATCC 29213 assessed as log reduction in bacterial number at 4 times of MIC measured after 24 hrs by time-kill kinetics assay; assay type: functional
Staphylococcus aureus [3] = experiment: Antimicrobial activity against Staphylococcus aureus ATCC 29213 assessed as inhibition of visible growth of bacteria incubated for 20 hrs by broth microdilution method; assay type: functional
[4] = Hemolytic activity in Kunming mouse erythrocytes assessed as hemolysis at 2 times of MIC measured after 1 hrs by absorbance based assay relative to control; assay type: toxicity, cell-based, Erythrocyte; conditions: read-out: Activity
Streptococcus pyogenes = experiment: Antimicrobial activity against Streptococcus pyogenes DL02 harboring erythromycin-resistance rRNA methylase B assessed as inhibition of visible growth of bacteria incubated for 20 hrs by broth microdilution method; assay type: functional
Enterococcus faecalis [5] = experiment: Antimicrobial activity against Enterococcus faecalis J2 harboring erythromycin-resistance rRNA methylase B and oxazolidinone phenicol transferable resistance gene assessed as inhibition of visible growth of bacteria incubated for 20 hrs by broth microdilution method; assay type: functional
Pseudomonas aeruginosa [6] = experiment: Antimicrobial activity against Pseudomonas aeruginosa PA14 assessed as inhibition of visible growth of bacteria incubated for 20 hrs by broth microdilution method; assay type: functional
[7] = Cytotoxicity against human Caco-2 cells assessed as cell viability at 1 time of MIC incubated for 48 hrs by CCK8 assay (reference value: 99.54 %); assay type: toxicity, cell-based; conditions: read-out: Activity
Enterococcus faecium [8] = experiment: Antimicrobial activity against Enterococcus faecium MC38 harboring erythromycin resistance rRNA methylase B and oxazolidinone-phenicol transferable resistance gene assessed as inhibition of visible growth of bacteria incubated for 20 hrs by broth microdilution method; assay type: functional
Acinetobacter baumannii [9] = experiment: Antimicrobial activity against Acinetobacter baumannii AB11 assessed as inhibition of visible growth of bacteria incubated for 20 hrs by broth microdilution method; assay type: functional
[10] = Cytotoxicity against human Caco-2 cells assessed as cell viability at 2 times of MIC incubated for 48 hrs by CCK8 assay (reference value: 99.54 %); assay type: toxicity, cell-based; conditions: read-out: Activity
Enterococcus faecium [11] = experiment: Antimicrobial activity against Enterococcus faecium QF31 harboring erythromycin resistance rRNA methylase B and chloramphenicol-florfenicol resistance methylase assessed as inhibition of visible growth of bacteria incubated for 20 hrs by broth microdilution method; assay type: functional
[12] = Cytotoxicity against human Caco-2 cells assessed as cell viability at 4 times of MIC incubated for 48 hrs by CCK8 assay (reference value: 99.54 %); assay type: toxicity, cell-based; conditions: read-out: Activity
Enterococcus faecalis [13] = experiment: Antimicrobial activity against Enterococcus faecalis JH2-2 assessed as inhibition of visible growth of bacteria incubated for 20 hrs by broth microdilution method; assay type: functional
[14] = Hemolytic activity in Kunming mouse erythrocytes assessed as hemolysis at 16 times of MIC measured after 1 hrs by absorbance based assay relative to control; assay type: toxicity, cell-based, Erythrocyte; conditions: read-out: Activity
Staphylococcus aureus [15] = experiment: microbe, parasite or virus in culture; assay type: functional; conditions: M147-2, time 20 hrs
Description: Antimicrobial activity against Staphylococcus aureus M147-2 harboring erythromycin resistance rRNA methylase B, tetracycline efflux protein L and chloramphenicol-florfenicol resistance methylase assessed as inhibition of visible growth of bacteria incubated for 20 hrs by broth microdilution method

Acinetobacter baumannii [16] = experiment: Antimicrobial activity against Acinetobacter baumannii 7979 assessed as inhibition of visible growth of bacteria incubated for 20 hrs by broth microdilution method; assay type: functional
Pseudomonas aeruginosa [17] = experiment: Antimicrobial activity against Pseudomonas aeruginosa PA01 assessed as inhibition of visible growth of bacteria incubated for 20 hrs by broth microdilution method; assay type: functional
Streptococcus suis [18] = experiment: Antimicrobial activity against Streptococcus suis P1/7 assessed as inhibition of visible growth of bacteria incubated for 20 hrs by broth microdilution method; assay type: functional
Staphylococcus aureus [19] = experiment: Bactericidal activity against Staphylococcus aureus ATCC 29213 assessed as decrease in bacterial number measured within 12 hrs by time-kill kinetics assay; assay type: functional, organism-based
[20] = Cytotoxicity against human HEp-2 cells assessed as cell viability at 1 time of MIC incubated for 48 hrs by CCK8 assay (reference value: 100 %); assay type: toxicity, cell-based; conditions: read-out: Activity
Enterococcus faecalis [21] = experiment: microbe, parasite or virus in culture; assay type: functional; conditions: SF23-1, time 20 hrs
Description: Antimicrobial activity against Enterococcus faecalis SF23-1 harboring erythromycin-resistance rRNA methylase B, tetracycline efflux protein L and chloramphenicol-florfenicol resistance methylase assessed as inhibition of visible growth of bacteria incubated for 20 hrs by broth microdilution method

[22] = Cytotoxicity against human Caco-2 cells assessed as cell viability at 8 times of MIC incubated for 48 hrs by CCK8 assay (reference value: 99.54 %); assay type: toxicity, cell-based; conditions: read-out: Activity
Escherichia coli = experiment: Antimicrobial activity against Escherichia coli ATCC 25922 assessed as inhibition of visible growth of bacteria incubated for 20 hrs by broth microdilution method; assay type: functional
Enterococcus faecium [23] = experiment: Antimicrobial activity against Enterococcus faecium HFY01 assessed as inhibition of visible growth of bacteria incubated for 20 hrs by broth microdilution method; assay type: functional
[24] = Cytotoxicity against human HEp-2 cells assessed as cell viability at 2 times of MIC incubated for 48 hrs by CCK8 assay (reference value: 100 %); assay type: toxicity, cell-based; conditions: read-out: Activity
[25] = Cytotoxicity against human HEp-2 cells assessed as cell viability at 8 times of MIC incubated for 48 hrs by CCK8 assay (reference value: 100 %); assay type: toxicity, cell-based; conditions: read-out: Activity
Enterococcus faecalis [26] = experiment: Antimicrobial activity against Enterococcus faecalis ES01 harboring erythromycin-resistance rRNA methylase B and vanB-type vancomycin-resistance locus assessed as inhibition of visible growth of bacteria incubated for 20 hrs by broth microdilution method; assay type: functional
[27] = Cytotoxicity against human HEp-2 cells assessed as cell viability at 4 times of MIC incubated for 48 hrs by CCK8 assay (reference value: 100 %); assay type: toxicity, cell-based; conditions: read-out: Activity
Salmonella enteritidis = experiment: Antimicrobial activity against Salmonella enteritis S1 assessed as inhibition of visible growth of bacteria incubated for 20 hrs by broth microdilution method; assay type: functional, Salmonella enterica subsp. enterica serovar Enteritidis; conditions: Salmonella enterica
Streptococcus suis [28] = experiment: microbe, parasite or virus in culture; assay type: functional; conditions: SH0918, time 20 hrs
Description: Antimicrobial activity against Streptococcus suis SH0918 harboring erythromycin-resistance rRNA methylase B, tetracycline efflux protein O and oxazolidinone phenicol transferable resistance gene assessed as inhibition of visible growth of bacteria incubated for 20 hrs by broth microdilution method

Klebsiella pneumoniae = experiment: Antimicrobial activity against Klebsiella pneumoniae 9-1 assessed as inhibition of visible growth of bacteria incubated for 20 hrs by broth microdilution method; assay type: functional
Staphylococcus aureus [29] = experiment: Bactericidal activity against Staphylococcus aureus ATCC 29213 assessed as bacterial killing at 8 times of MIC measured within 12 hrs by time-kill kinetics assay; assay type: functional, organism-based
Signal peptidase I = Signal peptidase I (Escherichia coli K-12, UniProt P00803); experiment: Binding affinity to recombinant 6His-tagged Escherichia coli LepB (77 to 324 residues) extracted from Escherichia coli BL21 (DE3) cells assessed as dissociation constant by MST analysis
Chain of Signal peptidase I (P00803 whole entry, the tested form may be a part): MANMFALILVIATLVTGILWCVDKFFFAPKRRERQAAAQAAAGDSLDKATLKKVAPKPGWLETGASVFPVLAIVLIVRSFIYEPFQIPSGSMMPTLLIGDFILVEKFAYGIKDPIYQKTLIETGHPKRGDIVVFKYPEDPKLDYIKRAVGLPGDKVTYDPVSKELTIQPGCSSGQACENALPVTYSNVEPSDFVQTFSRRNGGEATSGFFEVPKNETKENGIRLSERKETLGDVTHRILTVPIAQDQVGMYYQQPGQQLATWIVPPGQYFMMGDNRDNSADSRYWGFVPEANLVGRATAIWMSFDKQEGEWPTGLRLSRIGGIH

Staphylococcus aureus [30] = experiment: Drug resistance, ratio of MIC for Staphylococcus aureus ATCC 29213 measured after 28 days to MIC for Staphylococcus aureus ATCC 29213 measured after 20 hrs; assay type: functional
[31] = Hemolytic activity in Kunming mouse erythrocytes assessed as hemolysis at 8 times of MIC measured after 1 hrs by absorbance based assay relative to control; assay type: toxicity, cell-based, Erythrocyte; conditions: read-out: Activity
Staphylococcus aureus [32] = experiment: Antimicrobial activity against Staphylococcus aureus YZSA-21 harboring erythromycin resistance rRNA methylase C assessed as inhibition of visible growth of bacteria incubated for 20 hrs by broth microdilution method; assay type: functional
[33] = Hemolytic activity in Kunming mouse erythrocytes measured after 1 hrs by absorbance based assay; assay type: toxicity, cell-based, Erythrocyte
[34] = Cytotoxicity against human HEp-2 cells assessed as cell viability at 16 times of MIC incubated for 48 hrs by CCK8 assay (reference value: 100 %); assay type: toxicity, cell-based; conditions: read-out: Activity
[35] = Cytotoxicity against human Caco-2 cells assessed as cell viability at 16 times of MIC incubated for 48 hrs by CCK8 assay (reference value: 99.54 %); assay type: toxicity, cell-based; conditions: read-out: Activity
Staphylococcus aureus [36] = experiment: Antimicrobial activity against Staphylococcus aureus YZSA-15 harboring erythromycin resistance rRNA methylase C and vancomycin resistance locus assessed as inhibition of visible growth of bacteria incubated for 20 hrs by broth microdilution method; assay type: functional
Staphylococcus aureus [37] = experiment: microbe, parasite or virus in culture; assay type: functional; conditions: M92-1, time 20 hrs
Description: Antimicrobial activity against Staphylococcus aureus M92-1 harboring erythromycin resistance rRNA methylase B, tetracycline efflux protein L and oxazolidinone-phenicol transferable resistance gene assessed as inhibition of visible growth of bacteria incubated for 20 hrs by broth microdilution method

[38] = Hemolytic activity in Kunming mouse erythrocytes assessed as hemolysis at 1 time of MIC measured after 1 hrs by absorbance based assay relative to control; assay type: toxicity, cell-based, Erythrocyte; conditions: read-out: Activity
Staphylococcus aureus [39] = experiment: Antimicrobial activity against Staphylococcus aureus YZSA-24 harboring erythromycin resistance rRNA methylase C and methicillin resistance gene resistance locus assessed as inhibition of visible growth of bacteria incubated for 20 hrs by broth microdilution method; assay type: functional
Staphylococcus aureus [40] = experiment: Antibacterial activity against methicillin-resistant Staphylococcus aureus YZSA-24 infected in cyclophosphamide-induced neutrophil depleted female ICR mouse model of skin infection assessed as log reduction in bacterial load at 1 %, TOP preadministered with cyclophosphamide for 5 days followed by bacterial administration and measured after 25 hrs of compound administration relative to vehicle group; assay type: functional

SMILES: CCCCCCc1ccc(-c2ccc(/C=C3\CC(C)Cc4c3nc3ccc(OC)cc3c4C(=O)O)cn2)cc1 (racemic)
- hemolysis at 1 h, 4 times of MIC [1]: 0.98%
- MIC (Streptococcus agalactiae): 8 µg/mL (≈ 15.4 µM)
- Activity (Staphylococcus aureus [2]): 2.6 log10CFU/ml
- MIC (Staphylococcus aureus [3]): 4 µg/mL (≈ 7.68 µM)
- hemolysis at 1 h, 2 times of MIC [4]: 0.33%
- MIC (Streptococcus pyogenes): 16 µg/mL (≈ 30.7 µM)
- MIC (Enterococcus faecalis [5]): 4 µg/mL (≈ 7.68 µM)
- MIC (Pseudomonas aeruginosa [6]): > 128 µg/mL
- viability at 48 h, 1 time of MIC [7]: 99.7%
- MIC (Enterococcus faecium [8]): 4 µg/mL (≈ 7.68 µM)
- MIC (Acinetobacter baumannii [9]): > 128 µg/mL
- viability at 48 h, 2 times of MIC [10]: 73.5%
- MIC (Enterococcus faecium [11]): 4 µg/mL (≈ 7.68 µM)
- viability at 48 h, 4 times of MIC [12]: 49.7%
- MIC (Enterococcus faecalis [13]): 8 µg/mL (≈ 15.4 µM)
- hemolysis at 1 h, 16 times of MIC [14]: 72.5%
- MIC (Staphylococcus aureus [15]): 4 µg/mL (≈ 7.68 µM)
- MIC (Acinetobacter baumannii [16]): > 128 µg/mL
- MIC (Pseudomonas aeruginosa [17]): > 128 µg/mL
- MIC (Streptococcus suis [18]): 32 µg/mL (≈ 61.5 µM)
- Activity (Staphylococcus aureus [19]): Dose-dependent-effect
- viability at 48 h, 1 time of MIC [20]: 101%
- MIC (Enterococcus faecalis [21]): 8 µg/mL (≈ 15.4 µM)
- viability at 48 h, 8 times of MIC [22]: 17.8%
- MIC (Escherichia coli): > 128 µg/mL
- MIC (Enterococcus faecium [23]): 4 µg/mL (≈ 7.68 µM)
- viability at 48 h, 2 times of MIC [24]: 94.1%
- viability at 48 h, 8 times of MIC [25]: 39%
- MIC (Enterococcus faecalis [26]): 4 µg/mL (≈ 7.68 µM)
- viability at 48 h, 4 times of MIC [27]: 64%
- MIC (Salmonella enteritidis): > 128 µg/mL
- MIC (Streptococcus suis [28]): 32 µg/mL (≈ 61.5 µM)
- MIC (Klebsiella pneumoniae): > 128 µg/mL
- Activity (Staphylococcus aureus [29]): Active
- Kd (Signal peptidase I): 20.9 µM
- Ratio (Staphylococcus aureus [30]): 4
- hemolysis at 1 h, 8 times of MIC [31]: 55.8%
- MIC (Staphylococcus aureus [32]): 4 µg/mL (≈ 7.68 µM)
- HC50 at 1 h [33]: 34.8 µg/mL
- viability at 48 h, 16 times of MIC [34]: 1.91%
- viability at 48 h, 16 times of MIC [35]: 1.44%
- MIC (Staphylococcus aureus [36]): 4 µg/mL (≈ 7.68 µM)
- MIC (Staphylococcus aureus [37]): 4 µg/mL (≈ 7.68 µM)
- hemolysis at 1 h, 1 time of MIC [38]: 0%
- MIC (Staphylococcus aureus [39]): 4 µg/mL (≈ 7.68 µM)

SMILES: CC(=O)NC[C@H]1CN(c2ccc(N3CCOCC3)c(F)c2)C(=O)O1 [LINEZOLID]
- MIC (Streptococcus agalactiae): 1 µg/mL (≈ 2.96 µM)
- MIC (Staphylococcus aureus [3]): 1 µg/mL (≈ 2.96 µM)
- MIC (Streptococcus pyogenes): < 0.06 µg/mL
- MIC (Enterococcus faecium [8]): 2 µg/mL (≈ 5.93 µM)
- MIC (Enterococcus faecium [11]): 2 µg/mL (≈ 5.93 µM)
- MIC (Enterococcus faecalis [13]): 0.5 µg/mL (≈ 1.48 µM)
- MIC (Staphylococcus aureus [15]): 8 µg/mL (≈ 23.7 µM)
- MIC (Streptococcus suis [18]): 0.125 µg/mL (≈ 0.371 µM)
- MIC (Enterococcus faecium [23]): 2 µg/mL (≈ 5.93 µM)
- MIC (Streptococcus suis [28]): 8 µg/mL (≈ 23.7 µM)
- MIC (Staphylococcus aureus [32]): 1 µg/mL (≈ 2.96 µM)
- MIC (Staphylococcus aureus [36]): 0.5 µg/mL (≈ 1.48 µM)
- MIC (Staphylococcus aureus [37]): 8 µg/mL (≈ 23.7 µM)
- Activity (Staphylococcus aureus [40]): 4.05 log10CFU/ml
- MIC (Staphylococcus aureus [39]): 0.5 µg/mL (≈ 1.48 µM)
